Experimental data taken from patent US20250163104A1, “MACROCYCLIC IMMUNOMODULATORS” (priority 2021, published 2025).
Where a SMILES comes first, the peptide text is derived from it. Bridges are numbered along the chain shown (N, C = ends). [ ]: non-standard residue; d: D form. The star is where a group is joined. ξ: configuration not given here. Phe(4-COOH) = N[C@@H](Cc1ccc(C(=O)O)cc1)C(=O)O; Asp(3,3-Me2) = CC(C)(C(=O)O)[C@H](N)C(=O)O; Bip = N[C@@H](Cc1ccc(-c2ccccc2)cc1)C(=O)O; Phe(3-Cl) = N[C@@H](Cc1cccc(Cl)c1)C(=O)O; Phe(3-Me) = Cc1cccc(C[C@H](N)C(=O)O)c1; Val(3-OH) = CC(C)(O)[C@H](N)C(=O)O; 4Pal = N[C@@H](Cc1ccncc1)C(=O)O; 2Thi = N[C@@H](Cc1cccs1)C(=O)O; Cha = N[C@@H](CC1CCCCC1)C(=O)O; Cit = NC(=O)NCCC[C@H](N)C(=O)O; Thr(3ξ) = CC(O)[C@H](N)C(=O)O; dNle = CCCC[C@@H](N)C(=O)O; Carboxymethyl = O=C(O)C*; Nle = CCCC[C@H](N)C(=O)O; Orn = NCCC[C@H](N)C(=O)O; Dab = NCC[C@H](N)C(=O)O; Dap = NC[C@H](N)C(=O)O; Propargyl = C#CC*

Each molecule was assayed against T1, human PD-1 / PD-L1-Ig binding on Jurkat cell line over-expressing human PD-1 (Jurkat-PD-1) (Homo sapiens, UniProt Q15116) (assay: Jurkat-PD-1 Cell Binding High-Content Screening Assay (CBA)). Details: Jurkat-PD-1 cells, PE-labeled PD-L1-Ig 20 nM final; read-out: Jurkat HPD1_PDL1 IC50.
T1 construct: expressed in transfected cells; host or cells: Jurkat
T1 sequence (Q15116 25-288): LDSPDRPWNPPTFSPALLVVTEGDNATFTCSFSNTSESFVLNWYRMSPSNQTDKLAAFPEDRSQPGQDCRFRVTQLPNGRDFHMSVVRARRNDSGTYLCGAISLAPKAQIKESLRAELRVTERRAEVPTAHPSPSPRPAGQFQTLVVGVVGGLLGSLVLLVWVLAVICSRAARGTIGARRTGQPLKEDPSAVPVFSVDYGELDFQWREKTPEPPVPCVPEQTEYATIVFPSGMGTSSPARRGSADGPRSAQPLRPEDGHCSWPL
Type: cell-based
Method in brief: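 PE-PD-L1-Ig 20 nM final; cells in DMEM/10% FCS; cpd pre-incubation 2 h, 37° C; ligand 1 h; PFA fix + Hoechst 33342; high-content imaging read-out.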

| IC50 [nM] | Compound |
| --- | --- |
| 17.3 | CC(C)C[C@H]1NC(=O)[C@H](CCCN)NC(=O)[C@H](C(C)C)NC(=O)[C@H](Cc2ccc(-c3ccccc3)cc2)NC(=O)[C@H](C(C)C)NC(=O)[C@H](Cc2c[nH]c3ccccc23)NC(=O)[C@H](CC(=O)O)NC(=O)[C@H](Cc2ccc(O)cc2)NC(=O)[C@H](CCC(N)=O)NC(=O)CSC[C@@H](C(=O)N[C@@H](C)C(N)=O)NC(=O)[C@H](C(C)O)NC(=O)[C@H](C(C)C)NC(=O)[C@H](CC2CCCCC2)NC(=O)[C@H](CCN)NC1=O (stereo partly drawn) [Compound 2525] ({CH2CO}-QYDWV[Bip]V[Orn][dL][Dab][Cha]V[Thr(3ξ)]CA-NH2; thioether N-14) |
| 51.3 | CC(C)C[C@@H]1NC(=O)[C@H](Cc2c[nH]c3ccccc23)NC(=O)[C@H](CC(=O)O)NC(=O)[C@H](Cc2ccc(O)cc2)NC(=O)[C@H](Cc2ccccc2)NC(=O)CSC[C@@H](C(=O)NCC(N)=O)NC(=O)[C@H]([C@@H](C)O)NC(=O)[C@H](C(C)C)NC(=O)[C@H](CC(C)C)NC(=O)[C@H](CC(N)=O)NC(=O)[C@@H](CC(C)C)NC(=O)[C@H](CCCN)NC(=O)[C@H](C(C)C)NC(=O)[C@H](Cc2ccc(-c3ccccc3)cc2)NC1=O [Compound 1064] ({CH2CO}-FYDWL[Bip]V[Orn][dL]NLVTCG-NH2; thioether N-14) |
| 8.9 | Cc1cccc(C[C@@H]2NC(=O)[C@H](CC(=O)O)NC(=O)[C@H](Cc3ccc(C(=O)O)cc3)NC(=O)[C@H](CN)NC(=O)CSC[C@@H](C(=O)N[C@@H](C)C(N)=O)NC(=O)[C@H]([C@@H](C)O)NC(=O)[C@H](C(C)C)NC(=O)[C@H](CC3CCCCC3)NC(=O)[C@H](CCN)NC(=O)[C@@H](CC(C)C)NC(=O)[C@H](CCCN)NC(=O)[C@H](C(C)C)NC(=O)[C@H](Cc3ccc(-c4ccccc4)cc3)NC(=O)[C@H](C(C)C)NC2=O)c1 [Compound 1206] |
| 18.4 | CC(C)C[C@H]1NC(=O)[C@H](CCCN)NC(=O)[C@H](CCC(=O)O)NC(=O)[C@H](Cc2ccc(-c3ccccc3)cc2)NC(=O)[C@H](C(C)C)NC(=O)[C@H](Cc2c[nH]c3ccccc23)NC(=O)[C@H](CC(=O)O)NC(=O)[C@H](Cc2cccs2)NC(=O)[C@H](CN)NC(=O)CSC[C@@H](C(=O)N[C@@H](C)C(N)=O)NC(=O)[C@H]([C@@H](C)O)NC(=O)[C@H](C(C)C)NC(=O)[C@H](CC2CCCCC2)NC(=O)[C@H](CCN)NC1=O [Compound 2192] ({CH2CO}-[Dap][2Thi]DWV[Bip]E[Orn][dL][Dab][Cha]VTCA-NH2; thioether N-14) |
| 30 | CC(C)C[C@H]1NC(=O)[C@H](CCCN)NC(=O)[C@H](CCC(=O)O)NC(=O)[C@H](Cc2ccc(-c3ccccc3)cc2)NC(=O)[C@H](C(C)C)NC(=O)[C@H](Cc2c[nH]c3ccccc23)NC(=O)[C@H](CC(=O)O)NC(=O)[C@H](Cc2ccc(C(=O)O)cc2)NC(=O)[C@H](Cc2ccc(OCC(=O)O)cc2)NC(=O)CSC[C@@H](C(=O)N[C@@H](C)C(N)=O)NC(=O)[C@H]([C@@H](C)O)NC(=O)[C@H](C(C)C)NC(=O)[C@H](Cc2ccccc2)NC(=O)[C@H](CCN)NC1=O [Compound 1667] ({CH2CO}-Y(Carboxymethyl)[Phe(4-COOH)]DWV[Bip]E[Orn][dL][Dab]FVTCA-NH2; thioether N-14) |
| 27.1 | CC(C)C[C@@H]1NC(=O)[C@H](Cc2c[nH]c3ccccc23)NC(=O)[C@H](CC(=O)O)NC(=O)[C@H](Cc2ccc(O)cc2)NC(=O)[C@H](Cc2ccccc2)NC(=O)CSC[C@@H](C(=O)N[C@@H](C)C(N)=O)NC(=O)[C@H]([C@@H](C)O)NC(=O)[C@H](C(C)C)NC(=O)[C@H](CC(C)C)NC(=O)[C@H](CCN)NC(=O)[C@@H](CC(C)C)NC(=O)[C@H](CCCN)NC(=O)[C@H](C(C)C)NC(=O)[C@H](Cc2ccc(-c3ccccc3)cc2)NC1=O [Compound 1072] ({CH2CO}-FYDWL[Bip]V[Orn][dL][Dab]LVTCA-NH2; thioether N-14) |
| 7.6 | CCCC[C@H]1NC(=O)[C@H](CCCN)NC(=O)[C@H](CCC(=O)O)NC(=O)[C@H](Cc2ccc(-c3ccccc3)cc2)NC(=O)[C@H](C(C)C)NC(=O)[C@H](Cc2c[nH]c3ccccc23)NC(=O)[C@H](CC(=O)O)NC(=O)[C@H](Cc2ccc(C(=O)O)cc2)NC(=O)[C@H](Cc2ccncc2)NC(=O)CSC[C@@H](C(=O)N[C@@H](C)C(N)=O)NC(=O)[C@H]([C@@H](C)O)NC(=O)[C@H](C(C)C)NC(=O)[C@H](CC2CCCCC2)NC(=O)[C@H](CCN)NC1=O [Compound 1450] |
| 4.6 | Cc1cccc(C[C@@H]2NC(=O)[C@H](CC(=O)O)NC(=O)[C@H](Cc3ccc(OCC(=O)O)cc3)NC(=O)[C@H](Cc3ccc(OCC(=O)O)cc3)NC(=O)CSC[C@@H](C(=O)NCC(N)=O)NC(=O)[C@H](CO)NC(=O)[C@H](C(C)C)NC(=O)[C@H](CC(C)C)NC(=O)[C@H](CCN)NC(=O)[C@@H](CC(C)C)NC(=O)[C@H](CCCN)NC(=O)[C@H](C(C)C)NC(=O)[C@H](Cc3ccc(-c4ccccc4)cc3)NC(=O)[C@H](CC(C)C)NC2=O)c1 [Compound 1262] ({CH2CO}-Y(Carboxymethyl)Y(Carboxymethyl)D[Phe(3-Me)]L[Bip]V[Orn][dL][Dab]LVSCG-NH2; thioether N-14) |
| 1.2 | C#CCOc1ccc(C[C@@H]2NC(=O)[C@H](Cc3cccc(C)c3)NC(=O)[C@H](CC(=O)O)NC(=O)[C@H](Cc3ccc(C(=O)O)cc3)NC(=O)[C@H](CCCC)NC(=O)CSC[C@@H](C(=O)N[C@@H](CCN)C(N)=O)NC(=O)[C@H](CCC(=O)O)NC(=O)[C@H](C(C)C)NC(=O)[C@H](CC3CCCCC3)NC(=O)[C@H](CCN)NC(=O)[C@@H](CC(C)C)NC(=O)[C@H](CCCN)NC(=O)[C@H](Cc3ccc(C(=O)O)cc3)NC(=O)[C@H](Cc3ccc(-c4ccccc4)cc3)NC2=O)cc1 [Compound 1842] ({CH2CO}-[Nle][Phe(4-COOH)]D[Phe(3-Me)]Y(Propargyl)[Bip][Phe(4-COOH)][Orn][dL][Dab][Cha]VEC[Dab]-NH2; thioether N-14) |
| 67.1 | CC(C)C[C@@H]1NC(=O)[C@H](CCCNC(=N)N)NC(=O)[C@@H](CC(C)C)NC(=O)[C@H](CCN)NC(=O)[C@H](CCCNC(=N)N)NC(=O)[C@H](Cc2ccc(-c3ccccc3)cc2)NC(=O)[C@H](C(C)C)NC(=O)[C@H](Cc2c[nH]c3ccccc23)NC(=O)[C@H](CC(=O)O)NC(=O)[C@H](Cc2ccc(O)cc2)NC(=O)[C@H](CC(N)=O)NC(=O)CSC[C@@H](C(=O)N[C@@H](C)C(N)=O)NC(=O)[C@H]([C@@H](C)O)NC(=O)[C@H](C(C)C)NC1=O [Compound 1011] ({CH2CO}-NYDWV[Bip]R[Dab][dL]RLVTCA-NH2; thioether N-14) |
| 25.1 | CCCC[C@H]1NC(=O)[C@H](CCCN)NC(=O)[C@H]([C@@H](C)CC)NC(=O)[C@H](Cc2ccc(-c3ccccc3)cc2)NC(=O)[C@H](C(C)C)NC(=O)[C@H](Cc2c[nH]c3ccccc23)NC(=O)[C@H](CC(=O)O)NC(=O)[C@H](Cc2ccc(O)cc2)NC(=O)[C@H](CC(N)=O)NC(=O)CSC[C@@H](C(=O)N[C@@H](C)C(N)=O)NC(=O)[C@H]([C@@H](C)O)NC(=O)[C@H](C(C)C)NC(=O)[C@H](CC2CCCCC2)NC(=O)[C@H](CCN)NC1=O [Compound 1712] ({CH2CO}-NYDWV[Bip]I[Orn][dNle][Dab][Cha]VTCA-NH2; thioether N-14) |
| 22.2 | Cc1cccc(C[C@@H]2NC(=O)[C@H](CC(=O)O)NC(=O)[C@H](Cc3ccc(OCC(=O)O)cc3)NC(=O)[C@H](CCN)NC(=O)CSC[C@@H](C(=O)N[C@@H](CCN)C(N)=O)NC(=O)[C@H](CO)NC(=O)[C@H](C(C)(C)O)NC(=O)[C@H](CC3CCCCC3)NC(=O)[C@H](CCN)NC(=O)[C@@H](CC(C)C)NC(=O)[C@H](C(C)(C)C(=O)O)NC(=O)[C@H](Cc3ccc(OCC(=O)O)cc3)NC(=O)[C@H](Cc3ccc(-c4ccccc4)cc3)NC(=O)[C@H](Cc3ccc(OCC(=O)O)cc3)NC2=O)c1 [Compound 2073] ({CH2CO}-[Dab]Y(Carboxymethyl)D[Phe(3-Me)]Y(Carboxymethyl)[Bip]Y(Carboxymethyl)[Asp(3,3-Me2)][dL][Dab][Cha][Val(3-OH)]SC[Dab]-NH2; thioether N-14) |
| 17.6 | CC(C)C[C@@H]1NC(=O)[C@H](CCN)NC(=O)[C@@H](CC(C)C)NC(=O)[C@H](CCCCN)NC(=O)[C@H](C(C)C)NC(=O)[C@H](Cc2ccc(-c3ccccc3)cc2)NC(=O)[C@H](C(C)C)NC(=O)[C@H](Cc2c[nH]c3ccccc23)NC(=O)[C@H](CC(=O)O)NC(=O)[C@H](Cc2ccc(O)cc2)NC(=O)[C@H](CC(N)=O)NC(=O)CSC[C@@H](C(=O)N[C@@H](C)C(N)=O)NC(=O)[C@H](CO)NC(=O)[C@H](C(C)C)NC1=O [Compound 1128] ({CH2CO}-NYDWV[Bip]VK[dL][Dab]LVSCA-NH2; thioether N-14) |
| 26.1 | CC(C)C[C@@H]1NC(=O)[C@H](CCN)NC(=O)[C@@H](CC(C)C)NC(=O)[C@H](CCCN)NC(=O)[C@H](CCCNC(N)=O)NC(=O)[C@H](Cc2ccc(-c3ccccc3)cc2)NC(=O)[C@H](C(C)C)NC(=O)[C@H](Cc2c[nH]c3ccccc23)NC(=O)[C@H](CC(=O)O)NC(=O)[C@H](Cc2ccc(O)cc2)NC(=O)[C@H](Cc2ccncc2)NC(=O)CSC[C@@H](C(=O)N[C@@H](C)C(N)=O)NC(=O)[C@H]([C@@H](C)O)NC(=O)[C@H](C(C)C)NC1=O [Compound 1044] ({CH2CO}-[4Pal]YDWV[Bip][Cit][Orn][dL][Dab]LVTCA-NH2; thioether N-14) |
| 10.8 | CC(C)C[C@H]1NC(=O)[C@H](CCCN)NC(=O)[C@H](CCC(=O)O)NC(=O)[C@H](Cc2ccc(-c3ccccc3)cc2)NC(=O)[C@H](C(C)C)NC(=O)[C@H](Cc2cccc(Cl)c2)NC(=O)[C@H](CC(=O)O)NC(=O)[C@H](Cc2ccncc2)NC(=O)[C@H](Cc2ccc(OCC(=O)O)cc2)NC(=O)CSC[C@@H](C(=O)N[C@@H](C)C(N)=O)NC(=O)[C@H]([C@@H](C)O)NC(=O)[C@H](C(C)C)NC(=O)[C@H](CC2CCCCC2)NC(=O)[C@H](CCN)NC1=O [Compound 1493] ({CH2CO}-Y(Carboxymethyl)[4Pal]D[Phe(3-Cl)]V[Bip]E[Orn][dL][Dab][Cha]VTCA-NH2; thioether N-14) |
